The test system of the assay is α7 integrin promoter. Briefly: muscle cell-based assay: α7βgal+/− myoblasts/myotubes, LacZ reporter, β-galactosidase cleavage of FDG. Further details: species or system mouse; Results in α7+/− β-galactosidase assay: scale not given here. In short, it runs like this:
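Primary α7βgal+/− mouse myoblasts (LacZ knocked into α7 integrin exon 1, promoter retained), differentiated; promoter activity read as β-galactosidase conversion of non-fluorescent FDG to fluorescein. Hits followed by dose-response, western analysis and myostatin counterscreen.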

In the case of `Cc1[nH]c(/C=C2\C(=O)Nc3ccccc32)c(C)c1CCC(=O)O` [drawing 509], the “Results in α7+/− β-galactosidase assay” value (Myotubes, 0.5 uM) was determined as 0.04928; the “Results in α7+/− β-galactosidase assay” value (Myotubes, 1 uM) was 0.07615; the “Results in α7+/− β-galactosidase assay” value (Myotubes, 5 uM) is on record as −0.501; the “Results in α7+/− β-galactosidase assay” value (Myotubes, 10 uM) was −0.6162; the “Results in α7+/− β-galactosidase assay” value (Myotubes, 20 uM) is given as −0.2542; the “Results in α7+/− β-galactosidase assay” value (Myotubes, 40 uM) is −0.3688.

Turning to `Cc1cc(C)c(/C=C2\C(=O)Nc3ccccc32)[nH]1` [drawing 510], the “Results in α7+/− β-galactosidase assay” value is, setting by setting: (Myotubes, 0.5 uM) −0.2205; (Myotubes, 1 uM) −0.08303; (Myotubes, 5 uM) −0.5223; (Myotubes, 10 uM) −0.3378; (Myotubes, 20 uM) −0.232; (Myotubes, 40 uM) −0.06918.

Consider `Cc1cc(C)c(/C=C2\C(=O)Nc3ccccc32)[nH]1` [drawing 512], for which the “Results in α7+/− β-galactosidase assay” value by setting is: (Myotubes, 0.5 uM) −0.1661; (Myotubes, 1 uM) −0.09119; (Myotubes, 5 uM) −0.3196; (Myotubes, 10 uM) 0.09661; (Myotubes, 20 uM) −0.05031; (Myotubes, 40 uM) 0.151.

`Cc1cc(C)c(/C=C2\C(=O)Nc3ccccc32)[nH]1` [drawing 513]: the “Results in α7+/− β-galactosidase assay” value is listed as −0.1009 (Myotubes, 0.5 uM); −0.09355 (Myotubes, 1 uM); 0.09724 (Myotubes, 5 uM); 1.02 (Myotubes, 10 uM); 0.05028 (Myotubes, 20 uM); 0.1378 (Myotubes, 40 uM).

Take `O=C1Nc2ccccc2/C1=C1/Nc2ccccc2/C1=N\O` [drawing 514]: the “Results in α7+/− β-galactosidase assay” value runs as follows: (Myotubes, 0.5 uM) −0.111; (Myotubes, 1 uM) −0.1122; (Myotubes, 5 uM) −0.8688; (Myotubes, 10 uM) −1.081; (Myotubes, 20 uM) −0.5041; (Myotubes, 40 uM) −0.6481.

`CCN(CC)CCNC(=O)c1c(C)[nH]c(CC2C(=O)Nc3ccc(F)cc32)c1C` (stereo not drawn) [drawing 515]: the “Results in α7+/− β-galactosidase assay” value runs as follows: (Myotubes, 0.5 uM) −0.04962; (Myotubes, 1 uM) −0.02655; (Myotubes, 5 uM) −0.4387; (Myotubes, 10 uM) −1.86; (Myotubes, 20 uM) −0.9178; (Myotubes, 40 uM) 0.9191.

As to `Cc1[nH]c(/C=C2\C(=O)Nc3ccc([S+](=O)([O-])Cc4c(Cl)cccc4Cl)cc32)c(C)c1C(=O)C1CCCN1CN1CCCC1` (stereo not drawn) [drawing 517], the “Results in α7+/− β-galactosidase assay” value (Myotubes, 0.5 uM) was −0.02882; the “Results in α7+/− β-galactosidase assay” value (Myotubes, 1 uM) is listed as −0.08557; the “Results in α7+/− β-galactosidase assay” value (Myotubes, 5 uM) was 0.02824; the “Results in α7+/− β-galactosidase assay” value (Myotubes, 10 uM) is listed as −0.2838; the “Results in α7+/− β-galactosidase assay” value (Myotubes, 20 uM) is −0.348; the “Results in α7+/− β-galactosidase assay” value (Myotubes, 40 uM) is −0.7868.

In the case of `O=C1Nc2ccccc2/C1=C1/Nc2ccccc2/C1=N\O` [drawing 518], the “Results in α7+/− β-galactosidase assay” value by setting is: (Myotubes, 0.5 uM) 0.09617; (Myotubes, 1 uM) 0.05181; (Myotubes, 5 uM) −0.32; (Myotubes, 10 uM) −0.625; (Myotubes, 20 uM) −0.3346; (Myotubes, 40 uM) −0.5024.

On to `O=C(CNC(=O)c1cccc(F)c1)N/N=C/c1cc(Br)ccc1OCc1ccccc1` [drawing 519], for which the “Results in α7+/− β-galactosidase assay” value is, setting by setting: (Myoblasts, 0.5 uM) −0.00993; (Myoblasts, 1 uM) 0.03356; (Myoblasts, 5 uM) 0.1316; (Myoblasts, 10 uM) 0.088; (Myoblasts, 20 uM) −0.1376; (Myoblasts, 40 uM) 0.1351.

For the molecule `Cc1ccccc1-n1c(S)nnc1Cc1cccs1` [drawing 520], the “Results in α7+/− β-galactosidase assay” value is recorded as 0.09422 (Myoblasts, 0.5 uM); 0.03188 (Myoblasts, 1 uM); 0.1364 (Myoblasts, 5 uM); 0.3732 (Myoblasts, 10 uM); 0.1056 (Myoblasts, 20 uM); 0.01115 (Myoblasts, 40 uM).

Turning to `CCCCN(CC)Cc1ccc(C/N=C(\S)Nc2ccccc2F)o1` [drawing 521], the “Results in α7+/− β-galactosidase assay” value is, setting by setting: (Myoblasts, 0.5 uM) 0.07412; (Myoblasts, 1 uM) 0.014; (Myoblasts, 5 uM) 0.01263; (Myoblasts, 10 uM) 0.224; (Myoblasts, 20 uM) −0.04634; (Myoblasts, 40 uM) −0.1183.

With `COc1ccc2c(c1)C(=C(C#N)C#N)C(=O)N2CCc1ccccc1` [drawing 522], the “Results in α7+/− β-galactosidase assay” value was 0.199 (Myoblasts, 0.5 uM); 0.06668 (Myoblasts, 1 uM); −0.157 (Myoblasts, 5 uM); 0.1343 (Myoblasts, 10 uM); −0.3414 (Myoblasts, 20 uM); −0.3915 (Myoblasts, 40 uM).

Turning to `Cn1cc(CN(CCO)Cc2cccs2)c(-c2ccccc2F)n1` [drawing 523], the “Results in α7+/− β-galactosidase assay” value (Myoblasts, 0.5 uM) is given as 0.1756; the “Results in α7+/− β-galactosidase assay” value (Myoblasts, 1 uM) turned out to be 0.1912; the “Results in α7+/− β-galactosidase assay” value (Myoblasts, 5 uM) is listed as −0.02798; the “Results in α7+/− β-galactosidase assay” value (Myoblasts, 10 uM) amounted to 0.2648; the “Results in α7+/− β-galactosidase assay” value (Myoblasts, 20 uM) is 0.0346; the “Results in α7+/− β-galactosidase assay” value (Myoblasts, 40 uM) is on record as −0.1208.

`CCN1C(=O)/C(=C(/C#N)c2nc3ccccc3[nH]2)c2ccccc21` [drawing 524]: the “Results in α7+/− β-galactosidase assay” value runs as follows: (Myoblasts, 0.5 uM) −0.1641; (Myoblasts, 1 uM) −0.1562; (Myoblasts, 5 uM) −0.1933; (Myoblasts, 10 uM) −0.1296; (Myoblasts, 20 uM) −0.2594; (Myoblasts, 40 uM) −0.241.

For the molecule `Cc1ccc2c(c1)/C(=C/c1ccc(F)cc1)C(=O)N2` [drawing 525], the “Results in α7+/− β-galactosidase assay” value reads like this: (Myoblasts, 0.5 uM) 0.006732; (Myoblasts, 1 uM) −0.03019; (Myoblasts, 5 uM) −0.1238; (Myoblasts, 10 uM) −0.2542; (Myoblasts, 20 uM) −0.5127; (Myoblasts, 40 uM) −0.7544.

In the case of `O=C1Nc2ccccc2/C1=C\c1ccnc2ccccc12` [drawing 526], the “Results in α7+/− β-galactosidase assay” value (Myoblasts, 0.5 uM) came out at 0.2132; the “Results in α7+/− β-galactosidase assay” value (Myoblasts, 1 uM) amounted to 0.0742; the “Results in α7+/− β-galactosidase assay” value (Myoblasts, 5 uM) is 0.06287; the “Results in α7+/− β-galactosidase assay” value (Myoblasts, 10 uM) is 0.1705; the “Results in α7+/− β-galactosidase assay” value (Myoblasts, 20 uM) was −0.2337; the “Results in α7+/− β-galactosidase assay” value (Myoblasts, 40 uM) is recorded as −0.1575.

Consider `CCc1c(C)sc(NC(=O)c2ccco2)c1C#N` [drawing 527], for which the “Results in α7+/− β-galactosidase assay” value by setting is: (Myoblasts, 0.5 uM) 0.01962; (Myoblasts, 1 uM) 0.03303; (Myoblasts, 5 uM) −0.06162; (Myoblasts, 10 uM) −0.02233; (Myoblasts, 20 uM) −0.1898; (Myoblasts, 40 uM) −0.1237.

In the case of `CCc1c(C)sc(NC(=O)c2ccco2)c1C#N` [drawing 528], the “Results in α7+/− β-galactosidase assay” value is, setting by setting: (Myoblasts, 0.5 uM) 0.08233; (Myoblasts, 1 uM) 0.08072; (Myoblasts, 5 uM) 0.4585; (Myoblasts, 10 uM) 0.07353; (Myoblasts, 20 uM) 0.153; (Myoblasts, 40 uM) 0.1981.

Regarding `O=C1Nc2ccccc2/C1=C/c1ccccc1Cl` [drawing 529], the “Results in α7+/− β-galactosidase assay” value is listed as 0.2214 (Myoblasts, 0.5 uM); 0.2193 (Myoblasts, 1 uM); −0.03271 (Myoblasts, 5 uM); −0.1355 (Myoblasts, 10 uM); −0.2535 (Myoblasts, 20 uM); −0.6555 (Myoblasts, 40 uM).

With `COc1cccc(CN2CCN(Cc3ccco3)CC2)c1.O=C(O)C(=O)O` [drawing 530], the “Results in α7+/− β-galactosidase assay” value reads like this: (Myoblasts, 0.5 uM) 0.2392; (Myoblasts, 1 uM) 0.1359; (Myoblasts, 5 uM) 0.06492; (Myoblasts, 10 uM) −0.03174; (Myoblasts, 20 uM) 0.218; (Myoblasts, 40 uM) 0.2155.

On to `CC(C)Oc1ccc(C(=O)/C=C2\C(=O)Nc3ccccc32)cc1` [drawing 531], for which the “Results in α7+/− β-galactosidase assay” value is 0.3276 (Myoblasts, 0.5 uM); 0.2225 (Myoblasts, 1 uM); −0.3766 (Myoblasts, 5 uM); −0.6765 (Myoblasts, 10 uM); −0.7978 (Myoblasts, 20 uM); −0.9731 (Myoblasts, 40 uM).

Consider `COc1ccc(NC(=O)C2(N(C(=O)Cn3nnnc3N)c3ccc(OC)cc3)CCCCC2)cc1` [drawing 532], for which the “Results in α7+/− β-galactosidase assay” value is 0.2391 (Myoblasts, 0.5 uM); 0.1433 (Myoblasts, 1 uM); 0.4897 (Myoblasts, 5 uM); −0.1284 (Myoblasts, 10 uM); −0.274 (Myoblasts, 20 uM); −0.3931 (Myoblasts, 40 uM).

For `COc1ccc(CCNC(=O)Cn2nnc(C(=O)Nc3ccc(Br)cc3)c2N)cc1OC` [drawing 533], the “Results in α7+/− β-galactosidase assay” value is recorded as 0.1152 (Myoblasts, 0.5 uM); 0.03848 (Myoblasts, 1 uM); −0.06784 (Myoblasts, 5 uM); −0.0702 (Myoblasts, 10 uM); −0.3276 (Myoblasts, 20 uM); −0.5608 (Myoblasts, 40 uM).

Source of the values: patent US10028992B2, “Methods of treating muscular dystrophy” (BOARD OF REGENTS OF THE NEVADA SYSTEM OF HIGHER EDUCATION …, priority 2012, dated 2018).
